Data from the supplement of paper PMC11451515.

Columns and labels:
Details in all cases: 48 h
SEM cells [1] = test: cell viability relative to DMSO control; higher = less cytotoxic
Method in brief: (§1)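 Before seeding, each leukemia line was adapted for at least four passages in each medium. NOMO1 or SEM cells (500 cells/well) and P12-Ichikawa cells (1000 cells/well) went into 1536-well plates at 5 μl, then received library compounds in DMSO by pin dosing across 11 threefold concentrations, 47 μM to 0.79 nM. Readout was CellTiter-Glo One luminescence after 48 h at 37°C, and viability is given as a per-plate percentage of DMSO wells, with cell-free wells as background.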

P12-Ichikawa [2] = test: as above
Method in brief: as §1

NOMO1 [3] = test: as above
Method in brief: as §1

SEM cells [4] = test: AUC of viability dose-response curve (% viability x log10 dose units); higher = less sensitive
Method in brief: (§2)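 Leukemia cells adapted to each medium were seeded at 500 or 1000 cells/well in 1536-well plates and dosed with library compounds in DMSO at 11 threefold doses from 47 μM to 0.79 nM for 48 h at 37°C. CellTiter-Glo One luminescence was normalised per plate to DMSO and cell-free wells, then fitted with a four-parameter log-logistic model over log10 doses. Area under the curve was taken from this fit by the trapezoidal rule, with curves above full viability scaled and curves failing quality control removed.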

P12-Ichikawa [5] = test: as above
Method in brief: as §2

NOMO1 [6] = test: as above
Method in brief: as §2

CNCc1ccc(-c2[nH]c3cc(F)cc4c3c2CCNC4=O)cc1
cell viability [%]
Details	NOMO1 [3]	P12-Ichikawa [2]	SEM cells [1]
HPLM + 10% dialyzed FBS, 0.000781 µM	–	109	101
HPLM + 10% dialyzed FBS, 0.00234 µM	–	124	103
HPLM + 10% dialyzed FBS, 0.00702 µM	–	121	126
HPLM + 10% dialyzed FBS, 0.0211 µM	–	121	148
HPLM + 10% dialyzed FBS, 0.0632 µM	–	124	122
HPLM + 10% dialyzed FBS, 0.19 µM	–	126	118
HPLM + 10% dialyzed FBS, 0.569 µM	–	130	117
HPLM + 10% dialyzed FBS, 1.71 µM	–	119	133
HPLM + 10% dialyzed FBS, 5.12 µM	–	122	155
HPLM + 10% dialyzed FBS, 15.4 µM	–	123	141
HPLM + 10% dialyzed FBS, 46.1 µM	–	119	109
RPMI 5 mM glucose + 10% FBS, 0.000781 µM	111	–	106
RPMI 5 mM glucose + 10% FBS, 0.00234 µM	117	–	118
RPMI 5 mM glucose + 10% FBS, 0.00702 µM	126	–	128
RPMI 5 mM glucose + 10% FBS, 0.0211 µM	147	–	123
RPMI 5 mM glucose + 10% FBS, 0.0632 µM	133	–	134
RPMI 5 mM glucose + 10% FBS, 0.19 µM	127	–	127
RPMI 5 mM glucose + 10% FBS, 0.569 µM	128	–	143
RPMI 5 mM glucose + 10% FBS, 1.71 µM	130	–	152
RPMI 5 mM glucose + 10% FBS, 5.12 µM	120	–	163
RPMI 5 mM glucose + 10% FBS, 15.4 µM	132	–	153
RPMI 5 mM glucose + 10% FBS, 46.1 µM	125	–	128
RPMI 5 mM glucose + 10% dialyzed FBS, 0.000781 µM	103	–	94.5
RPMI 5 mM glucose + 10% dialyzed FBS, 0.00234 µM	120	–	110
RPMI 5 mM glucose + 10% dialyzed FBS, 0.00702 µM	131	–	115
RPMI 5 mM glucose + 10% dialyzed FBS, 0.0211 µM	155	–	115
RPMI 5 mM glucose + 10% dialyzed FBS, 0.0632 µM	139	–	95.7
RPMI 5 mM glucose + 10% dialyzed FBS, 0.19 µM	139	–	130
RPMI 5 mM glucose + 10% dialyzed FBS, 0.569 µM	125	–	126
RPMI 5 mM glucose + 10% dialyzed FBS, 1.71 µM	136	–	136
RPMI 5 mM glucose + 10% dialyzed FBS, 5.12 µM	151	–	115
RPMI 5 mM glucose + 10% dialyzed FBS, 15.4 µM	145	–	120
RPMI 5 mM glucose + 10% dialyzed FBS, 46.1 µM	141	–	106

AUC of viability dose-response curve
Details	NOMO1 [6]	P12-Ichikawa [5]	SEM cells [4]
HPLM + 10% dialyzed FBS	474	470	439
RPMI 5 mM glucose + 10% FBS	466	474	434
RPMI 5 mM glucose + 10% dialyzed FBS	461	467	460

Nc1cc(C(F)(F)F)c(-c2cc(N3CCOCC3)nc(N3CCOCC3)n2)cn1
cell viability [%]
Details	NOMO1 [3]	P12-Ichikawa [2]	SEM cells [1]
HPLM + 10% dialyzed FBS, 0.000781 µM	–	–	118
HPLM + 10% dialyzed FBS, 0.00234 µM	–	–	121
HPLM + 10% dialyzed FBS, 0.00702 µM	–	–	99
HPLM + 10% dialyzed FBS, 0.0211 µM	–	–	113
HPLM + 10% dialyzed FBS, 0.0632 µM	–	–	113
HPLM + 10% dialyzed FBS, 0.19 µM	–	–	88.5
HPLM + 10% dialyzed FBS, 0.569 µM	–	–	72.2
HPLM + 10% dialyzed FBS, 1.71 µM	–	–	43.4
HPLM + 10% dialyzed FBS, 5.12 µM	–	–	14
HPLM + 10% dialyzed FBS, 15.4 µM	–	–	6.54
HPLM + 10% dialyzed FBS, 46.1 µM	–	–	5.09
RPMI 5 mM glucose + 10% FBS, 0.000781 µM	115	111	88.9
RPMI 5 mM glucose + 10% FBS, 0.00234 µM	127	124	89.2
RPMI 5 mM glucose + 10% FBS, 0.00702 µM	118	135	88.1
RPMI 5 mM glucose + 10% FBS, 0.0211 µM	133	137	102
RPMI 5 mM glucose + 10% FBS, 0.0632 µM	130	133	90
RPMI 5 mM glucose + 10% FBS, 0.19 µM	120	126	64.2
RPMI 5 mM glucose + 10% FBS, 0.569 µM	98.4	94.8	75.6
RPMI 5 mM glucose + 10% FBS, 1.71 µM	74.5	67.2	27.4
RPMI 5 mM glucose + 10% FBS, 5.12 µM	14.8	15.7	6.68
RPMI 5 mM glucose + 10% FBS, 15.4 µM	6.77	13.2	3.92
RPMI 5 mM glucose + 10% FBS, 46.1 µM	7.91	7.95	2.34
RPMI 5 mM glucose + 10% dialyzed FBS, 0.000781 µM	–	–	113
RPMI 5 mM glucose + 10% dialyzed FBS, 0.00234 µM	–	–	131
RPMI 5 mM glucose + 10% dialyzed FBS, 0.00702 µM	–	–	121
RPMI 5 mM glucose + 10% dialyzed FBS, 0.0211 µM	–	–	123
RPMI 5 mM glucose + 10% dialyzed FBS, 0.0632 µM	–	–	118
RPMI 5 mM glucose + 10% dialyzed FBS, 0.19 µM	–	–	91.1
RPMI 5 mM glucose + 10% dialyzed FBS, 0.569 µM	–	–	74.1
RPMI 5 mM glucose + 10% dialyzed FBS, 1.71 µM	–	–	37.6
RPMI 5 mM glucose + 10% dialyzed FBS, 5.12 µM	–	–	14.6
RPMI 5 mM glucose + 10% dialyzed FBS, 15.4 µM	–	–	5.59
RPMI 5 mM glucose + 10% dialyzed FBS, 46.1 µM	–	–	3.9

AUC of viability dose-response curve
Details	NOMO1 [6]	P12-Ichikawa [5]	SEM cells [4]
HPLM + 10% dialyzed FBS	317	328	307
RPMI 5 mM glucose + 10% FBS	340	334	283
RPMI 5 mM glucose + 10% dialyzed FBS	334	329	299

COc1cccc([C@@H](C)NCCCc2ccccc2Cl)c1
cell viability [%]
Details	NOMO1 [3]	P12-Ichikawa [2]	SEM cells [1]
HPLM + 10% dialyzed FBS, 0.000781 µM	83	93.8	88.5
HPLM + 10% dialyzed FBS, 0.00234 µM	104	98	90.3
HPLM + 10% dialyzed FBS, 0.00702 µM	83.2	89.9	95.2
HPLM + 10% dialyzed FBS, 0.0211 µM	111	93.3	105
HPLM + 10% dialyzed FBS, 0.0632 µM	91.5	97.5	106
HPLM + 10% dialyzed FBS, 0.19 µM	113	99.9	95.8
HPLM + 10% dialyzed FBS, 0.569 µM	95.6	94.4	81.8
HPLM + 10% dialyzed FBS, 1.71 µM	110	92.7	97.6
HPLM + 10% dialyzed FBS, 5.12 µM	103	99.3	107
HPLM + 10% dialyzed FBS, 15.4 µM	95.9	99.2	96.3
HPLM + 10% dialyzed FBS, 46.1 µM	110	106	101
RPMI 5 mM glucose + 10% FBS, 0.000781 µM	84.4	95	82.6
RPMI 5 mM glucose + 10% FBS, 0.00234 µM	86.1	94.2	100
RPMI 5 mM glucose + 10% FBS, 0.00702 µM	87.2	94.3	79.9
RPMI 5 mM glucose + 10% FBS, 0.0211 µM	97.5	85.9	100
RPMI 5 mM glucose + 10% FBS, 0.0632 µM	93.9	96.9	94
RPMI 5 mM glucose + 10% FBS, 0.19 µM	88	91.9	94.9
RPMI 5 mM glucose + 10% FBS, 0.569 µM	94.7	94.1	84.2
RPMI 5 mM glucose + 10% FBS, 1.71 µM	86.1	92.8	78.7
RPMI 5 mM glucose + 10% FBS, 5.12 µM	94.8	90.6	97.4
RPMI 5 mM glucose + 10% FBS, 15.4 µM	94.6	94.9	100
RPMI 5 mM glucose + 10% FBS, 46.1 µM	101	103	93.5
RPMI 5 mM glucose + 10% dialyzed FBS, 0.000781 µM	86.2	83.1	81.2
RPMI 5 mM glucose + 10% dialyzed FBS, 0.00234 µM	100	87.5	112
RPMI 5 mM glucose + 10% dialyzed FBS, 0.00702 µM	92.3	85.3	92
RPMI 5 mM glucose + 10% dialyzed FBS, 0.0211 µM	84.4	88.1	101
RPMI 5 mM glucose + 10% dialyzed FBS, 0.0632 µM	100	91.3	94
RPMI 5 mM glucose + 10% dialyzed FBS, 0.19 µM	101	90.7	114
RPMI 5 mM glucose + 10% dialyzed FBS, 0.569 µM	87.9	87.4	97.2
RPMI 5 mM glucose + 10% dialyzed FBS, 1.71 µM	90	91.4	95.1
RPMI 5 mM glucose + 10% dialyzed FBS, 5.12 µM	111	95.2	98.6
RPMI 5 mM glucose + 10% dialyzed FBS, 15.4 µM	106	98.1	108
RPMI 5 mM glucose + 10% dialyzed FBS, 46.1 µM	104	99.8	99.6

AUC of viability dose-response curve
Details	NOMO1 [6]	P12-Ichikawa [5]	SEM cells [4]
HPLM + 10% dialyzed FBS	461	440	463
RPMI 5 mM glucose + 10% FBS	437	435	436
RPMI 5 mM glucose + 10% dialyzed FBS	429	432	472
